Results on nine compounds are retold here after ChEMBL document CHEMBL1201862, “PubChem BioAssay data set” (2004).

Test systems include NCI-H23; K562; SK-MEL-5; TK-10; SF-539; SNB-75; SR; UACC-62; MOLT-4; HCC 2998; CCRF-CEM; Malme-3M; SF-295; CAKI-1; HOP-62; LOX IMVI; SK-MEL-2; SK-OV-3; Hs-578T; MCF7.
What all share (experiment): NCI anticancer screen, dose series, 48 h

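The compound was tested at five concentrations on cells cultured in 96-well plates, with a 48-hour exposure period. The concentration for 50% growth inhibition is given as GI50.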 The source made the active and inactive calls. Rule as the data show it: active = GI50 up to about 1.1 µM and inactive = higher. Bounds are passed on as bounds.

For `CN(C)CCn1c(=O)c2ccc3c4c(nn3CCN(C)C)c3cc(O)ccc3n(c1=O)c24`, the GI50 in the assay with NCI-H23 was 0.0855 µM (active); in the assay with K562, 0.0459 µM (active); in the assay on SK-MEL-5, 0.319 µM (active); in the assay on TK-10 it was 0.117 µM (active); with SF-539, 1.29 µM (inactive); with SNB-75, 0.059 µM (active). The GI50 in the assay on SR was < 0.01 µM (active); in the assay on UACC-62, 0.172 µM (active); with MOLT-4 it was < 0.01 µM (active); in the assay with HCC 2998, < 0.0493 µM (active); with CCRF-CEM, < 0.032 µM (active); with Malme-3M it was 0.354 µM (active). Also, the GI50 with SF-295 is 0.0136 µM (active); in the assay with CAKI-1, 0.0501 µM (active); in the assay with HOP-62 it was < 0.0316 µM (active); in the assay with LOX IMVI, < 0.0306 µM (active); in the assay with SK-MEL-2 it was 0.131 µM (active).
Turning to `O=S(=O)(c1ccc(Br)cc1)n1c2ccc(Br)cc2c2nc3ccccc3nc21`, the GI50 is > 100 µM (inactive) in the assay with NCI-H23; > 100 µM (inactive) with K562; > 100 µM (inactive) in the assay on SK-MEL-5; 52 µM (inactive) in the assay with SK-OV-3; 82 µM (inactive) in the assay on TK-10; 25.9 µM (inactive) in the assay with SNB-75. In addition, the GI50 in the assay with UACC-62 was 38.3 µM (inactive); with MOLT-4, > 100 µM (inactive); in the assay with HCC 2998, > 100 µM (inactive); in the assay with CCRF-CEM, 14.1 µM (inactive); in the assay on Malme-3M, > 100 µM (inactive); in the assay on SF-295 it was 68.1 µM (inactive). In addition, the GI50 with CAKI-1 is > 100 µM (inactive); in the assay on HOP-62 it was 34.3 µM (inactive); in the assay on Hs-578T it was 47.6 µM (inactive); with LOX IMVI it was > 100 µM (inactive); in the assay on SK-MEL-2, 57.5 µM (inactive).
With `CCOC(=O)N1CCc2cc(OC)c(OC)c3c2C1CC3=O` (stereo not drawn), the GI50 in the assay on K562, with SK-MEL-5, with SK-OV-3, in the assay on TK-10, with SF-539 and in the assay with SNB-75 was > 100 µM (inactive) each time. Moreover, the GI50 in the assay on SR, with UACC-62, in the assay on MOLT-4, in the assay with HCC 2998, in the assay with CCRF-CEM and in the assay on Malme-3M was > 100 µM (inactive) each time. Moreover, the GI50 in the assay with SF-295, in the assay on CAKI-1, in the assay with HOP-62, in the assay on LOX IMVI and in the assay with SK-MEL-2 was > 100 µM (inactive) each time.
Turning to `O=C1c2ccccc2C(=O)N1C/C=N/NS(=O)(=O)c1ccc(F)cc1`, the GI50 with NCI-H23 is > 100 µM (inactive); in the assay on K562, > 100 µM (inactive); in the assay on SK-MEL-5, > 100 µM (inactive); in the assay with TK-10, > 100 µM (inactive); in the assay with SF-539 it was > 100 µM (inactive); in the assay on SNB-75, 59 µM (inactive). The GI50 in the assay on SR, in the assay with UACC-62, with MOLT-4, with HCC 2998, with CCRF-CEM and with Malme-3M was > 100 µM (inactive) each time. Besides, the GI50 in the assay on SF-295, in the assay on CAKI-1, with LOX IMVI and in the assay on SK-MEL-2 was > 100 µM (inactive) throughout.
For `OCCN1CCN2C=C(C3CCCC4N(CCO)CCN34)CCC21` (stereo not drawn), the GI50 is 43 µM (inactive) in the assay with NCI-H23; 11.6 µM (inactive) in the assay with K562; 41.9 µM (inactive) in the assay with SK-MEL-5; > 69.2 µM (inactive) in the assay on SK-OV-3; > 53.5 µM (inactive) in the assay on TK-10; 33.7 µM (inactive) with SF-539. The GI50 was 34.8 µM (inactive) in the assay with SNB-75; 5.68 µM (inactive) with SR; 28.1 µM (inactive) in the assay with UACC-62; 13.9 µM (inactive) with MOLT-4; > 100 µM (inactive) in the assay on HCC 2998; 5.56 µM (inactive) in the assay on CCRF-CEM. The GI50 was > 79.8 µM (inactive) with Malme-3M; 98.4 µM (inactive) in the assay with SF-295; 48 µM (inactive) with CAKI-1; > 100 µM (inactive) in the assay with HOP-62; 26.7 µM (inactive) in the assay on LOX IMVI; 23.5 µM (inactive) in the assay with SK-MEL-2.
Take `COc1ccn(CC(=O)c2cc3ccccc3[nH]2)c(=O)n1`: the GI50 in the assay on NCI-H23, with K562, in the assay with SK-MEL-5, with SK-OV-3, in the assay on TK-10 and in the assay on SF-539 was > 100 µM (inactive) in each case. Further, the GI50 with SNB-75, with UACC-62, in the assay on MOLT-4, in the assay with HCC 2998, with CCRF-CEM and with Malme-3M was > 100 µM (inactive) throughout. Besides, the GI50 in the assay with SF-295, in the assay with CAKI-1, in the assay with HOP-62, in the assay with LOX IMVI, in the assay on MCF7 and in the assay on SK-MEL-2 was > 100 µM (inactive) each time.
For `Oc1ccc(-c2csc(N/N=C3\NC/C(=C/c4ccc5c(c4)OCO5)S3)n2)cc1O`, the GI50 with NCI-H23 is 9.95 µM (inactive); in the assay on SK-MEL-5 it was 9.82 µM (inactive); in the assay with SK-OV-3, > 100 µM (inactive); in the assay on TK-10, 21.7 µM (inactive); in the assay on SF-539, 3.18 µM (inactive); in the assay with SNB-75, 1.73 µM (inactive). The GI50 is 5.45 µM (inactive) with MOLT-4; 40.6 µM (inactive) in the assay with HCC 2998; 43.2 µM (inactive) with SF-295; 32.4 µM (inactive) in the assay on CAKI-1; 22.1 µM (inactive) in the assay on HOP-62; 11.6 µM (inactive) with LOX IMVI. Also, the GI50 in the assay with MCF7 is 6.43 µM (inactive); in the assay with SK-MEL-2, 10 µM (inactive).
In the case of `CCCCCCCCCCCCCCCCCC[N+](C)(C)Cc1ccc(C[N+](C)(C)CCCCCCCCCCCCCCCCCC)cc1`, the GI50 in the assay with NCI-H23 was 4.09 µM (inactive); with K562, 45.1 µM (inactive); in the assay on SK-MEL-5 it was 22.8 µM (inactive); in the assay on SK-OV-3, 26.6 µM (inactive); in the assay with TK-10 it was 13.6 µM (inactive); in the assay with SNB-75, 3.15 µM (inactive). Also, the GI50 is 2.39 µM (inactive) with SR; 21.9 µM (inactive) with UACC-62; 21 µM (inactive) with MOLT-4; 26.2 µM (inactive) in the assay on HCC 2998; 16.9 µM (inactive) in the assay on CCRF-CEM; 24.3 µM (inactive) in the assay with Malme-3M. Besides, the GI50 in the assay with SF-295 is 11.3 µM (inactive); in the assay with CAKI-1 it was 21.2 µM (inactive); in the assay with HOP-62 it was 4.41 µM (inactive); in the assay with LOX IMVI it was 13.6 µM (inactive); in the assay with SK-MEL-2 it was 24.1 µM (inactive).
`COC(=O)/C1=C/c2c([nH]c3ccccc23)/C(C(=O)OC)=C\c2c1[nH]c1ccccc21` [CAULERPIN]: the GI50 is 38.1 µM (inactive) in the assay on NCI-H23; 28.8 µM (inactive) in the assay with SK-MEL-5; > 50 µM (inactive) in the assay with SK-OV-3; 32.6 µM (inactive) with TK-10; 33.5 µM (inactive) in the assay with SF-539; 19.9 µM (inactive) in the assay on UACC-62. Besides, the GI50 was 12.9 µM (inactive) in the assay with Malme-3M; 40.3 µM (inactive) with SF-295; 37.9 µM (inactive) in the assay on CAKI-1; 10.9 µM (inactive) with HOP-62; 16.8 µM (inactive) in the assay with Hs-578T; 18.7 µM (inactive) in the assay on LOX IMVI. Also, the GI50 was 10.3 µM (inactive) in the assay on MCF7 and 14.4 µM (inactive) in the assay with SK-MEL-2.
